This note sets out measurements from ChEMBL document CHEMBL5532755, “Unveiling the potent activity of a synthetic ion transporter against multidrug-resistant Gram-positive bacteria and biofilms” (RSC Med Chem, 2024).

Assay [1] concerns Staphylococcus aureus. Nature of the assay: Induction of resistance development in methicillin-resistant Staphylococcus aureus ATCC 33591 assessed as fold increase in MIC measured after 3 days by broth dilution method relative to control. The conditions noted are these: time 3.0 day. The class given is functional.
Assay [2] has as its system Staphylococcus aureus. The experiment in a line: Induction of resistance development in methicillin-resistant Staphylococcus aureus ATCC 33591 assessed as fold increase in MIC measured after 5 days by broth dilution method relative to control. It is filed as functional. The following applies: time 5.0 day.
Assay [3] relates to Staphylococcus aureus. Nature of the assay: Induction of resistance development in methicillin-resistant Staphylococcus aureus ATCC 33591 assessed as fold increase in MIC measured after 10 days by broth dilution method relative to control. The class given is functional. The following applies: time 10.0 day.
For another assay, the system named is Escherichia coli. Nature of the assay: Antibacterial activity against Escherichia coli MTCC 443 incubated for 16 to 18 hrs by broth dilution method. The following applies: time 16-18 hrs. The class given is functional.
The test system of assay [4] is Cell membrane. Nature of the assay: Induction of membrane depolarization in methicillin-resistant Staphylococcus aureus ATCC 33591 assessed as depolarized bacterial cells by measuring green fluorescence at 10 to 15 ug/ml incubated for 4 hrs by DiOC2(3) dye based flow cytometry analysis (reference value: 27.3%). The class given is cell membranes. The following applies: dose 10-15 µg/ml.

In assay [5] the test system is Cell membrane. The experiment in a line: Induction of membrane depolarization in methicillin-resistant Staphylococcus aureus ATCC 33591 assessed as depolarized bacterial cells by measuring red fluorescence at 10 to 15 ug/ml incubated for 4 hrs by DiOC2(3) dye based flow cytometry analysis (reference value: 63.8%). The class given is cell membranes. The conditions noted are these: dose 10-15 µg/ml.

In assay [6] the test system is Cell membrane. The experiment in a line: Induction of membrane depolarization in methicillin-resistant Staphylococcus aureus ATCC 33591 assessed as depolarized bacterial cells by measuring red to green fluorescence ratio at 10 to 15 ug/ml incubated for 4 hrs by DiOC2(3) dye based flow cytometry analysis. The class given is cell membranes. The conditions noted are these: dose 10-15 µg/ml.

Turning to `CC(=O)O[C@H]1C[C@@]2(C)[C@@H](C[C@@H](O)[C@H]3[C@@]4(C)CC[C@@H](O)[C@@H](C)[C@@H]4CC[C@@]32C)/C1=C(\CCC=C(C)C)C(=O)O`, the fold change (FC) in the assay with Staphylococcus aureus [1] is 32; in the assay on Staphylococcus aureus [2], 128; in the assay with Staphylococcus aureus [3], 4000.
Compound COLISTIN gave an MIC against Escherichia coli of 1 µg/mL.
Take `N#CC(C#N)=NNc1cccc(Cl)c1`: the Activity in the assay on Cell membrane [4] was 47.8%; in the assay on Cell membrane [5] it was 49.1%. Besides, in the assay with Cell membrane [6], the Ratio came out at 1.1.
